Assay results taken from patent publication US9796742B2, “Kinase inhibitors” (Respivert Limited, priority 2012, dated 2017).

Tests used:
PBMCs [1] = experiment: LPS-induced TNFα/IL-8 release in PBMC cells; type: cell-based; settings: Homo sapiens, LPS-stimulated PBMCs
In short: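 Human PBMCs from healthy donors, isolated by density gradient, were pretreated with compound for 2 h and then stimulated with 1 ng/mL LPS (E. coli 0111:B4) for 24 h at 37° C, 5% CO2. Supernatant IL-8 and TNFα were measured by sandwich ELISA, and IC50 was taken from the dose-response curve.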

PBMCs [2] = experiment: IL-2 and IFN gamma release in CD3/CD28 stimulated PBMC cells; type: cell-based; settings: Homo sapiens
In short: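 They were cultured with compound for 3 days. IL-2 and IFN-γ in supernatants were quantified by sandwich ELISA, and IC50 was derived from the dose-response curve.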

[3] = tested on: TNBS-induced colitis in mice; experiment: TNBS-induced colitis in mice; type: in vivo
Protocol: Non-fasted, 10-12 week old, male BDF1 mice are dosed by oral gavage twice daily with either vehicle (5 mL/kg), reference item (Budesonide 2.5 mg/kg) or test compound (1 or 5 mg/kg) one day before (Day −1) stimulation of the inflammatory response by treatment with 2,4,6-trinitrobenzenesuiphonic acid (TNBS) (15 mg/mL in 50% ethanol/50% saline). On Day 0 of the study TNBS (200 μL) is administered intra-colonically via a plastic catheter followed by BID dosing of the vehicle, reference or test compound for 2 or 4 days. During the study animals are weighed every day and stool observations are made and recorded as a score, based on stool consistency. At the time of sacrifice on Day 2 (or Day 4) the large intestine is removed and the length and weight recorded. Sections of the colon are taken for either MPO analysis to determine neutrophil infiltration or for histopathology involving scoring to determine disease severity.

COCCOCCOCCOc1cc(Nc2nccc(Oc3ccc(NC(=O)Nc4cc(C(C)(C)C)nn4-c4cccc(CP(C)(C)=O)c4)c4ccccc34)n2)cc(OC)c1 [Example 60, 1-(3-(tert-Butyl)-1-(3-((dimethylphosphoryl)methyl)phenyl)-1H-pyrazol-5-yl)-3-(4-((2-((3-methoxy-5-(2-(2-(2-methoxyethoxy)ethoxy)ethoxy)phenyl)amino)pyrimidin-4-yl)oxy)-naphthalen-1-yl)urea]
IC50 (PBMCs [1]; IL-8, read-out: IC50 Values for Inhibition of Cytokine Release, PBMCs IL-8): 0.9 nM | IC50 (PBMCs [1]; TNFα, read-out: IC50 Values for Inhibition of Cytokine Release, PBMCs TNFα): 0.6 nM | IC50 (PBMCs [2]; IFNγ, read-out: IC50 Values for Inhibition of Cytokine Release, PBMCs IFNγ): 1.9 nM | IC50 (PBMCs [2]; IL-2, read-out: IC50 Values for Inhibition of Cytokine Release, PBMCs IL-2): 16 nM | TNBS Ulcer grade ([3]; 5 mg/kg oral, conducted over 2 days, vehicle 3.6 ± 0.3 (exp. 1), 4.4 ± 0.2 (exp. 2)): 3.6 ± 0.4 | TNBS LP inflammation ([3]; 5 mg/kg oral, conducted over 2 days, vehicle 3.9 ± 0.3 (exp. 1), 4.5 ± 0.2 (exp. 2)): 2.8 ± 0.4 | activity in in vivo model of colonic inflammation (histopathology analysis) ([3]; conducted over 2 days): significant activity | inflammatory cell infiltrate in the reticular and laminar propria zone ([3]; dosed orally at 5 mg/kg): marked reduction | ulcer grade and epithelial repair compared to the vehicle control ([3]; dosed orally at 5 mg/kg): marked improvements
